According to US6149904A, “Method for inhibiting tumor cell growth by administering to tumor cells expressing a nucleic acid encoding a connexin and a pro-drug” (The Regents of the University of California, priority 1997, dated 2000):

What was measured:
9L glial tumor cells = assay: GCV therapy after injecting HSV-tk+ PA317 fibroblasts into pre-existing tumors (Example 2); assay type: in vivo, athymic mice; details: GCV 25 mg/kg BID 7 days from 24 h after fibroblast injection; tumors weighed 14 days after start; FIG. 4
Description: 5 athymic (immuno-incompetent) mice were injected subcutaneously with 1×10^7 tumor cells known to have either high (9L glial tumor cells) or low (C6 glial tumor cells) levels of gap junction mediated intercellular transport. 1×10^7 HSV-tk^+ fibroblasts (PA317 cells) were injected into the center of tumors that were formed. GCV therapy (25 mg/kg, BID) was commenced 24 hours later and continued for 7 days. 14 days following the initiation of GCV treatment the tumors were removed and weighed.
These findings indicate the importance of gap junction mediated transport for the bystander killing of tumor cells.

[1] = test system: 9L tumor cells mixed with HSV-tk+ connexin43- fibroblasts; assay: GCV treatment of 9L tumors with HSV-tk+ connexin43- fibroblasts (Example 4); assay type: in vivo, athymic mice
Description: (§1) 5 athymic (immuno-incompetent) mice were injected subcutaneously with mixtures of 1×10^7 9L tumor cells and either immortalized connexin43^- mouse fibroblasts engineered to express HSV-tk (5 mice) or immortalized mouse fibroblasts from normal mice which express connexin 43 and had also been engineered to express HSV-tk (5 mice). The inoculated cells were allowed to grow into tumors. The tumor-bearing animals were treated with GCV (25 mg/kg) for 7 days. Tumor size was monitored and 14 days following the initiation of GCV treatment the tumors were removed. In a parallel experiment, animals injected with a mixture of 1×10^79L tumor cells and with immortalized connexin43^- mouse fibroblasts engineered to express HSV-tk were mock-treated with sham injections of phosphate buffeted saline (PBS) lacking GCV.
Two other groups of 5 animals inoculated with mixtures of 9L cells and HSV-tk^+ fibroblasts derived from cells lacking any connexin43 genes were identically treated.

[2] = test system: 9L tumor cells mixed with HSV-tk+ fibroblasts expressing connexin43; assay: GCV treatment of 9L tumors with HSV-tk+ fibroblasts expressing connexin43 (Example 4); assay type: in vivo, athymic mice
Description: as §1
Of the 5 animals with tumors consisting of 9L cells and HSV-tk^+ fibroblasts expressing connexin43, only 3 animals still had detectable tumors when examined 7 days after the completion of GCV therapy. […] A matched control group of 5 animals which received sham injections of phosphate buffeted saline (PBS) instead of GCV all had tumors 7 days after the completion of this "sham treatment".

[3] = test system: 9L glial tumor cells mixed with PA317 fibroblasts expressing HSV-tk; assay: GCV tumor toxicity, co-injected tumor cells and HSV-tk PA317 fibroblasts (Example 1); assay type: in vivo, athymic BALB/C mice; details: GCV 25 mg/kg BID 7 days; tumors removed 14 days after start of GCV; 9L (high coupling) vs C6 (low coupling); FIG. 3
Description: The HSV-tk gene was stably cloned into a PA/317 fibroblasts as described in Mol. Cell. Biol. 6:2895-2902 (1986) and New Eng. J. Med. 232:570-578 (1990). Athymic (immune-incompetent) BALB/C mice were injected subcutaneously with mixtures of: 1) 1×10^7 tumor cells known to have either high (9L glial tumor cells) or low (C6 glial tumor cells) levels of gap junction mediated intercellular transport, and 2) 1×10^7 immortalized mouse fibroblasts (PA317 cells) engineered to express HSV-tk. The mixtures of inoculated cells were allowed to grow into tumors over a period of 7-14 days (the time for detectable tumor formation varied depending on the identity and number of injected cells). The tumor-bearing animals were then treated for 7 days with GCV (25 mg/kg, BID) or with phosphate buffeted saline (PBS). Tumor size was periodically monitored.
14 days following the initiation of GCV treatment the tumors were removed. FIG. 3 summarizes the average weight of tumors following their removal. […] Thus, tumor toxicity was greater in tumors with higher levels of gap junction mediated intercellular transport.

Nc1nc(O)c2ncn(COC(CO)CO)c2n1 [GCV, Ganciclovir]
effect of GCV treatment on tumor weight, 9L versus C6 tumors (9L glial tumor cells): greater in 9L cells
therapeutic effect of GCV administration against tumors ([1]; GCV 25 mg/kg 7 days, fibroblasts with connexin genes deleted, FIG. 6): not effective
animals with tumors (of 5) ([1]; after 7 days of GCV treatment, 5 animals in group): 5 animals
average tumor weight ([1]; after 7 days of GCV treatment, group without GCV 5.68 g): 5.43 g
animals with detectable tumors (of 5) ([2]; 7 days after completion of GCV therapy, 5 animals in group): 3 animals
average tumor weight ([2]; GCV 25 mg/kg 7 days, 7 days after completion of GCV therapy, PBS sham control 4.35 g): 0.63 g
therapeutic effect of GCV administration against tumors ([2]; GCV 25 mg/kg 7 days, fibroblasts with normal connexin 43 genes, FIG. 6): highly therapeutic effect
tumor size (average weight of tumors) versus C6 tumors treated with GCV [3]: significantly smaller
